These results are taken from paper PMC3673835, “Synthesis and biological evaluation of 1, 3-dihydroxyxanthone mannich base derivatives as anticholinesterase agents” (Chemistry Central Journal, 2013).

In general, IC50 refers to the midpoint of a concentration-inhibition curve. High values mean weaker potency, low ones greater potency.

For experiment [1], the target named is Electric-eel AChE (EC 3.1.1.7) (Electrophorus electricus, UniProt O42275). Description: biochemical. The conditions noted are these: means ± standard deviation of triplicate independent experiments; substrate acetylthiocholine iodide; 37°C, pH 8.0.
Sequence of Electric-eel AChE (EC 3.1.1.7) (O42275 24-633): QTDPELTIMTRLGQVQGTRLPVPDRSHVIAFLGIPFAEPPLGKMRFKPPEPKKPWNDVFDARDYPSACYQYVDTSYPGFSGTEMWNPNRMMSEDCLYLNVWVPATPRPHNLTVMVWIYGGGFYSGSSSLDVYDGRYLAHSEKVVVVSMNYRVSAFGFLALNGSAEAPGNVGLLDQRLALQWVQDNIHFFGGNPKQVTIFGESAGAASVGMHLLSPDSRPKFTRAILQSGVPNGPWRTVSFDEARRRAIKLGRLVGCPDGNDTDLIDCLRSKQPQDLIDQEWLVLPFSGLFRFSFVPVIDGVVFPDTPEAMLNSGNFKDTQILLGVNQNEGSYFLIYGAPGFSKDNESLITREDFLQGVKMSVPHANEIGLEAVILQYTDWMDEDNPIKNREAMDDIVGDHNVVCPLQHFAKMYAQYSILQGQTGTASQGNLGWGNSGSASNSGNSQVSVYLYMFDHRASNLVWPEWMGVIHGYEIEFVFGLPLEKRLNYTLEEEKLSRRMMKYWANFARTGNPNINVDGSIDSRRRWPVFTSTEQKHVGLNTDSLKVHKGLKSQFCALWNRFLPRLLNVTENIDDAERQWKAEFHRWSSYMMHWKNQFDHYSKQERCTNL
For experiment [2], the target named is horse-serum BuChE (EC3.1.1.8) (Equus caballus, UniProt P81908). Description: biochemical. The class given is biochemical. Conditions: for Selectivity for BuChE/AChE: ratio IC50 BuChE / IC50 AChE; for IC50: substrate butyrylthiocholine, 37°C, pH 8.0.
Sequence of horse-serum BuChE (EC3.1.1.8) (P81908 whole entry): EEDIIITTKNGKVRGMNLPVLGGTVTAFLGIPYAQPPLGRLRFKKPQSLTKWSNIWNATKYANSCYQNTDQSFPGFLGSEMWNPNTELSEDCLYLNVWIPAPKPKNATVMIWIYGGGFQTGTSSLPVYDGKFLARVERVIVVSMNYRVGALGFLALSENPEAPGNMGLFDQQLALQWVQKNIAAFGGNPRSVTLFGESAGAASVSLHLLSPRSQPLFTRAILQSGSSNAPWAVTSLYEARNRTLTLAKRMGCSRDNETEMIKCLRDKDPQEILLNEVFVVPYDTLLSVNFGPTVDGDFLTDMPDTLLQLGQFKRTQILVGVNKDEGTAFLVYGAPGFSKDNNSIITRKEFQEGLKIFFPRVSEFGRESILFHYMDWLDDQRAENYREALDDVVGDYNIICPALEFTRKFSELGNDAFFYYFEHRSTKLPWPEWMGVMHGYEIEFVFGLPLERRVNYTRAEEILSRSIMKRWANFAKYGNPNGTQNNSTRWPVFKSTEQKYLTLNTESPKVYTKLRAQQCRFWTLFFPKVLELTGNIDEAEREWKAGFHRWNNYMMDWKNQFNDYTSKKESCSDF
Experiment [3] addresses T1, AChE (Electrophorus electricus, UniProt O42275).
T1 construct: purchased Sigma
The experiment can be described thus: Enzyme kinetic assay on AChE (Lineweaver-Burk plots). The class given is biochemical, Electric-eel. The conditions noted are these: curves intersect at the secondary quadrant.

The target in experiment [4] is BuChE (Equus caballus, UniProt P81908). The format is biochemical. The conditions noted are these: Lineweaver-Burk plots, curves intersect at the secondary quadrant.
Sequence of BuChE (P81908 whole entry): as above
Where [5] appears, read: listed as 2-((diethylamino)methyl)-1-hydroxy-3-(3-methylbut-2-enyloxy)-9H-xanthen-9-one.

Where two headings read alike, the source gives them in different places.

T1 sequence (O42275 24-633): as the sequence (O42275 24-633) above

In turn, `CC(C)=CCOc1cc2oc3ccccc3c(=O)c2c(O)c1CN(C)C` [4a, 2-((dimethylamino)methyl)-1-hydroxy-3-(3-methylbut-2-enyloxy)-9H-xanthen-9-one] displayed a half-maximal inhibitory concentration (IC50) in experiment [1] of 2.63 ± 0.07 µM. In experiment [2], the “Selectivity for BuChE/AChE” value was found to be 0.57 and the IC50 was determined as 1.49 ± 0.03 µM.
In experiment [1], `COc1cc2oc3ccccc3c(=O)c2c(O)c1CN1CCOCC1` [2e, 1-hydroxy-3-methoxy-2-(morpholinomethyl)-9H-xanthen-9-one] came in with an IC50 of 7.76 ± 2.36 µM. In experiment [2], the “Inhibition activity against BuChE at 100 μM” value (“Inhibition activity” below) is given as “did not show any inhibition activity”, the “Selectivity for BuChE/AChE” value is given as >12.89 and the 50% inhibitory concentration (IC50) was > 100 µM.
In experiment [1], `O=c1c2ccccc2oc2cc(O)c(CN3CCCCC3)c(O)c12` [1d, 1,3-dihydroxy-2-(piperidin-1-ylmethyl)-9H-xanthen-9-one] returned an IC50 of 79.3 ± 5.78 µM. Moreover, in experiment [2], the “Selectivity for BuChE/AChE” value is reported as 0.54 and half-maximal inhibition (IC50) required 43 ± 1.76 µM.
The corresponding values for `COc1cc2oc3ccccc3c(=O)c2c(O)c1CN1CCCC1` [2c, 1-hydroxy-3-methoxy-2-(pyrrolidin-1-ylmethyl)-9H-xanthen-9-one] are 4.2 ± 0.29 µM, 1.72 and 7.21 ± 0.75 µM.
The corresponding values for `CC(C)=CCOc1cc2oc3ccccc3c(=O)c2c(O)c1CN1CCCCC1` [4d, 1-hydroxy-3-(3-methylbut-2-enyloxy)-2-(piperidin-1-ylmethyl)-9H-xanthen-9-one] are 55.3 ± 8.15 µM, 0.10 and 5.61 ± 0.08 µM.
The matching figures for `C=CCOc1cc2oc3ccccc3c(=O)c2c(O)c1CN1CCCC1` [3c, 3-allyloxy-1-hydroxy-2-(pyrrolidin-1-ylmethyl)-9H-xanthen-9-one]: 4.36 ± 0.58 µM, 0.70 and 3.05 ± 0.13 µM.
With `COc1cc2oc3ccccc3c(=O)c2c(O)c1CN(C)C` [2a, 2-((dimethylamino)methyl)-1-hydroxy-3-methoxy-9H-xanthen-9-one], the IC50 turned out to be 2.34 ± 0.2 µM in experiment [1] and 10.9 ± 0.2 µM in experiment [2]. Moreover, the “Selectivity for BuChE/AChE” value in experiment [2] was 4.66.
In the case of `O=c1c2ccccc2oc2cc(O)c(CN3CCCC3)c(O)c12` [1c, 1,3-dihydroxy-2-(pyrrolidin-1-ylmethyl)-9H-xanthen-9-one], in experiment [1], the IC50 turned out to be 81.9 ± 2.04 µM. In experiment [2], the “Selectivity for BuChE/AChE” value amounted to 0.43 and the IC50 stood at 35.5 ± 1.68 µM.
On to `C=CCOc1cc2oc3ccccc3c(=O)c2c(O)c1CN1CCOCC1` [3e, 3-allyloxy-1-hydroxy-2-(morpholinomethyl)-9H-xanthen-9-one], for which, in experiment [1], 74.7 ± 4.07 µM corresponded to half-maximal inhibition (IC50). Moreover, in experiment [2], the “Inhibition activity” value is reported as “did not show any inhibition activity”, the “Selectivity for BuChE/AChE” value is >1.34 and the 50% inhibitory concentration (IC50) was > 100 µM.
As to `CC(C)=CCOc1cc2oc3ccccc3c(=O)c2c(O)c1CN1CCCC1` [4c, 1-hydroxy-3-(3-methylbut-2-enyloxy)-2-(pyrrolidin-1-ylmethyl)-9H-xanthen-9-one], the IC50 in experiment [1] amounted to 5.85 ± 0.32 µM; in experiment [2], 2.89 ± 0.07 µM. Also, the “Selectivity for BuChE/AChE” value in experiment [2] is 0.49.
The matching figures for `CCN(CC)Cc1c(O)cc2oc3ccccc3c(=O)c2c1O` [1b, 2-((diethylamino)methyl)-1,3-dihydroxy-9H-xanthen-9-one]: 73.7 ± 1.36 µM, 37 ± 0.56 µM and 0.50.
The matching figures for `CCN(CC)Cc1c(OC)cc2oc3ccccc3c(=O)c2c1O` [2b, 2-((diethylamino)methyl)-1-hydroxy-3-methoxy-9H-xanthen-9-one]: 2.4 ± 0.49 µM, 6.79 ± 0.56 µM and 2.83.
`CC(C)=CCOc1cc2oc3ccccc3c(=O)c2c(O)c1CN1CCOCC1` [4e] displayed an IC50 in experiment [1] of 24.2 ± 0.4 µM. Moreover, in experiment [2], the “Selectivity for BuChE/AChE” value is recorded as 0.37 and the midpoint of inhibition, the IC50, lay at 8.83 ± 0.36 µM.
As to `CCN(CC)Cc1c(OCC=C(C)C)cc2oc3ccccc3c(=O)c2c1O` [4b, 2-((diethylamino)methyl)-1-hydroxy-3-(3-methylbut-2-enyloxy)-9H-xanthen-9-one], the “Inhibition mode on AChE” value was “mixed-type inhibition” in experiment [3] and “mixed-type manner” in experiment [3] (setting [5]). Further, the IC50 in experiment [1] is 2.61 ± 0.13 µM; in experiment [2], 0.51 ± 0.01 µM. The “Inhibition mode on BuChE” value in experiment [4] is reported as “mixed-type inhibition”; in experiment [4] (setting [5]), “mixed-type manner”. Further, the “Selectivity for BuChE/AChE” value in experiment [2] came out at 0.20.
On to `C=CCOc1cc2oc3ccccc3c(=O)c2c(O)c1CN(C)C` [3a, 3-allyloxy-2-((dimethylamino)methyl)-1-hydroxy-9H-xanthen-9-one], for which the IC50 in experiment [1] amounted to 5.84 ± 1.19 µM; in experiment [2], 4.66 ± 0.64 µM. Also, the “Selectivity for BuChE/AChE” value in experiment [2] stood at 0.80.
`O=c1c2ccccc2oc2cc(O)c(CN3CCOCC3)c(O)c12` [1e, 1,3-dihydroxy-2-(morpholinomethyl)-9H-xanthen-9-one] gave a half-inhibitory concentration (IC50) in experiment [1] of 95.4 ± 1.7 µM. For the same compound, in experiment [2], the “Inhibition activity” value was “did not show any inhibition activity”, the “Selectivity for BuChE/AChE” value was >1.05 and the half-maximal inhibitory concentration (IC50) was > 100 µM.
Compound `C=CCOc1cc2oc3ccccc3c(=O)c2c(O)c1CN1CCCCC1` [3d, 3-allyloxy-1-hydroxy-2-(piperidin-1-ylmethyl)-9H-xanthen-9-one] registered a 50% inhibitory concentration (IC50) in experiment [1] of 3.7 ± 0.16 µM. Also, in experiment [2], the “Selectivity for BuChE/AChE” value is 0.47 and half-maximal inhibition (IC50) was put at 1.73 ± 0.08 µM.
The corresponding values for `COc1cc2oc3ccccc3c(=O)c2c(O)c1CN1CCCCC1` [2d, 1-hydroxy-3-methoxy-2-(piperidin-1-ylmethyl)-9H-xanthen-9-one] are 7 ± 0.07 µM, 1.53 and 10.6 ± 0.22 µM.
The corresponding values for `CN(C)Cc1c(O)cc2oc3ccccc3c(=O)c2c1O` [1a, 2-((dimethylamino)methyl)-1,3-dihydroxy-9H-xanthen-9-one] are 107 ± 5.78 µM, 0.59 and 62.9 ± 0.84 µM.
As to `C=CCOc1cc2oc3ccccc3c(=O)c2c(O)c1CN(CC)CC` [3b, 3-allyloxy-2-((diethylamino)methyl)-1-hydroxy-9H-xanthen-9-one], the IC50 in experiment [1] is 6 ± 0.33 µM; in experiment [2], 1.54 ± 0.14 µM. In addition, the “Selectivity for BuChE/AChE” value in experiment [2] amounted to 0.26.
